Data as given in patent US20250195521A1 (Revolution Medicines, Inc., priority 2020, published 2025).
Like-named read-outs stand apart in the source and are kept apart here.

How the values were obtained:
[1] = tested on: NCI-H358 cells (K-Ras G12C); experiment: CellTiter-Glo cell viability, NCI-H358; format: cell-based, human; conditions: Homo sapiens, NCI-H358, 120 h, read-out: H358 Cell Viability IC50
Outline: (§1)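 Endpoint: CellTiter-Glo luminescence on day 5, following ~30 min at room temperature. Data as (sample/mean DMSO)×100, four-parameter logistic fit.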

[2] = tested on: Capan-1 cells (K-Ras G12V); experiment: CellTiter-Glo cell viability, Capan-1; format: cell-based, human; conditions: Homo sapiens, CAPAN-1, 120 h, read-out: Capan-1 Cell Viability IC50
Outline: as §1

[3] = target: KRAS G13C (Homo sapiens (Human), UniProt P01116+P62937, G13C); experiment: Ras-Raf disruption/FRET/MOA assay (BRAF RBD, Cyclophilin A); format: biochemical; conditions: read-out: KRAS G13C FRET IC50
Outline: (§2)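 His6-K-Ras-GMPPNP (12.5 nM), GST-BRAF RBD (50 nM) and tagless Cyclophilin A (25 μM) were combined in 25 mM HEPES pH 7.3 with 100 mM NaCl, 5 mM MgCl2, 0.1% BSA and 0.002% Tween20, with compound as a 10-point 3-fold series from 30 μM final, then incubated 3 h at 25° C.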

[4] = target: KRAS G12C (Homo sapiens (Human), UniProt P01116+P62937, G12C); experiment: as above; format: biochemical; conditions: read-out: KRAS G12C FRET IC50
Outline: as §2

[5] = target: KRAS WT (Homo sapiens (Human), UniProt P01116+P62937); experiment: as above; format: biochemical; conditions: read-out: KRAS WT FRET data IC50
Outline: as §2

[6] = target: NRAS G12C (Homo sapiens (Human), UniProt P01111+P62937, G12C); experiment: as above; format: biochemical
Outline: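 TR-FRET read after 1.5 h with 10 nM anti-His Eu-W1024 and 50 nM anti-GST APC, following 3 h at 25 °C of GMPPNP-loaded His6-Ras (12.5 nM), GST-BRAF RBD (50 nM) and Cyclophilin A (25 μM) with compound from 30 μM final, 10 points, 3-fold. IC50 reported; pH 7.3 HEPES, 100 mM NaCl.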

[7] = target: KRAS G13D (Homo sapiens (Human), UniProt P01116+P62937, G13D); experiment: as above; format: biochemical; conditions: read-out: KRAS G13D FRET data IC50
Outline: as §2

[8] = target: KRAS G12D (Homo sapiens (Human), UniProt P01116+P62937, G12D); experiment: as above; format: biochemical; conditions: read-out: KRAS G12D FRET IC50
Outline: as §2

[9] = target: KRAS G12S (Homo sapiens (Human), UniProt P01116+P62937, G12S); experiment: as above; format: biochemical; conditions: read-out: KRAS G12S FRET IC50
Outline: as §2

[10] = target: KRAS G12V (Homo sapiens (Human), UniProt P01116+P62937, G12V); experiment: as above; format: biochemical; conditions: read-out: KRAS G12V FRET IC50
Outline: as §2

[11] = read-out: NRAS G12C FRET data IC50

NRAS G12C, sequence (P01111 whole entry G12C): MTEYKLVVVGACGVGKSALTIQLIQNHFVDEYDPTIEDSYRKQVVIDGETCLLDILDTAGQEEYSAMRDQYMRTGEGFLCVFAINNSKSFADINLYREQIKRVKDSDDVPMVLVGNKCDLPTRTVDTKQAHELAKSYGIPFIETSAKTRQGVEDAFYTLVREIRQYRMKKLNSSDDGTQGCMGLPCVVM
NRAS G12C, sequence (P62937 whole entry): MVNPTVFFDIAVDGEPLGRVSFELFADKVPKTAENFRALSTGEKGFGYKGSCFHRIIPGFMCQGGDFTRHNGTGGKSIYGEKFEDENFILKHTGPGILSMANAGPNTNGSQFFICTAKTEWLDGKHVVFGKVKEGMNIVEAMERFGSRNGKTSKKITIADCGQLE
KRAS G13D, sequence (P01116 other isoform, or with tags, fused parts or gaps G13D): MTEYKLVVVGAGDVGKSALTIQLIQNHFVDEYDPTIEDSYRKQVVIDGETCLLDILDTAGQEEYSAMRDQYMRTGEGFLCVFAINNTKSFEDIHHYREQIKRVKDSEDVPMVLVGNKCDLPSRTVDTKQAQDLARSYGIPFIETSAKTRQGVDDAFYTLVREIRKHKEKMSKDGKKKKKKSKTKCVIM
KRAS G13D, sequence (P62937 whole entry): as the sequence (P62937 whole entry) above
KRAS G12V, sequence (P01116 other isoform, or with tags, fused parts or gaps G12V): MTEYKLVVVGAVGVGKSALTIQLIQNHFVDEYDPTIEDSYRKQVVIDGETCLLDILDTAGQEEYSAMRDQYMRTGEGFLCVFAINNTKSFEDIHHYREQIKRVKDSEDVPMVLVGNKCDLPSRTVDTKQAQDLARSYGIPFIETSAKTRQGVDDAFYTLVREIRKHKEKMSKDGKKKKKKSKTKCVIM
KRAS G12V, sequence (P62937 whole entry): as the sequence (P62937 whole entry) above
KRAS G12D, sequence (P01116 other isoform, or with tags, fused parts or gaps G12D): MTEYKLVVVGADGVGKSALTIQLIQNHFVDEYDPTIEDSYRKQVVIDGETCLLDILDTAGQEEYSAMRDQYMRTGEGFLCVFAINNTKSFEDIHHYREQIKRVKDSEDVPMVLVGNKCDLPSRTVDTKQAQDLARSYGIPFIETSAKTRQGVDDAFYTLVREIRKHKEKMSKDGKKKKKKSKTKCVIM
KRAS G12D, sequence (P62937 whole entry): as the sequence (P62937 whole entry) above
KRAS G12S, sequence (P01116 other isoform, or with tags, fused parts or gaps G12S): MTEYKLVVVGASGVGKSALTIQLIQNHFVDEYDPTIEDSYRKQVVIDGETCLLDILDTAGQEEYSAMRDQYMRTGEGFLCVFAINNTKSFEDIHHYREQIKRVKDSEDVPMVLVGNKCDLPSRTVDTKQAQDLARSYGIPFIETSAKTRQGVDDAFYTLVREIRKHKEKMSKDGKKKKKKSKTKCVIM
KRAS G12S, sequence (P62937 whole entry): as the sequence (P62937 whole entry) above
KRAS WT, sequence (P01116 other isoform, or with tags, fused parts or gaps): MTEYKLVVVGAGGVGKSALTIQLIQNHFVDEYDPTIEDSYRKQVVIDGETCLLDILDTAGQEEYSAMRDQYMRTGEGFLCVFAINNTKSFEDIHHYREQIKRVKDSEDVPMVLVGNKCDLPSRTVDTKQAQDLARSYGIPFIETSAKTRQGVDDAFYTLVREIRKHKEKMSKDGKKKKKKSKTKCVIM
KRAS WT, sequence (P62937 whole entry): as the sequence (P62937 whole entry) above
KRAS G13C, sequence (P01116 other isoform, or with tags, fused parts or gaps G13C): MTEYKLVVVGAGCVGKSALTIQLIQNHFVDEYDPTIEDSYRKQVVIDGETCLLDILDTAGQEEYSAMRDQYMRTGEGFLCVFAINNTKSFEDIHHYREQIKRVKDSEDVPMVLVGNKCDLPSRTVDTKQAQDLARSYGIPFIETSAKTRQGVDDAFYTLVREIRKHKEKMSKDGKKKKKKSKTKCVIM
KRAS G13C, sequence (P62937 whole entry): as the sequence (P62937 whole entry) above
KRAS G12C, sequence (P01116-2 other isoform, or with tags, fused parts or gaps G12C): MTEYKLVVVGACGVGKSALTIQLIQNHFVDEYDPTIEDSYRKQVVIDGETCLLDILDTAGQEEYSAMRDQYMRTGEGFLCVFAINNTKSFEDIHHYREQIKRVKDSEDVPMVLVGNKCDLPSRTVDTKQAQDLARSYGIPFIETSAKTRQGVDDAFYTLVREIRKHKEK
KRAS G12C, sequence (P62937 whole entry): as the sequence (P62937 whole entry) above

| IC50 ([1]; K-Ras G12C, 5-day treatment) [nM] | IC50 [3] [nM] | IC50 [4] [nM] | IC50 [5] [nM] | IC50 [6, 11] [nM] | IC50 [7] [nM] | IC50 [8] [nM] | IC50 [9] [nM] | IC50 [10] [nM] | Compound | IC50 ([2]; K-Ras G12V, 5-day treatment) [nM] | IC50 [1] [nM] | IC50 [2] [nM] | IC50 ([6]; NRAS G12C FRET data IC50) [nM] |
| --- | --- | --- | --- | --- | --- | --- | --- | --- | --- | --- | --- | --- | --- |
| 100 to 1000 | 100 to 1000 | 100 to 1000 | 100 to 1000 | 100 to 1000 | 1000 to 10000 | 1000 to 10000 | 1000 to 10000 | 100 to 1000 | CCn1c(-c2cccnc2[C@H](C)OC)c2c3cc(ccc31)-c1cccc(c1)C[C@H](NC(=O)[C@H](C(C)C)N(C)C(=O)N1CC(OC)C1)C(=O)N1CCC[C@H](N1)C(=O)OCC(C)(C)C2 [Compound A355] | 100 to 1000 |  |  |  |
| 10 to 100 | 100 to 1000 | 10 to 100 | 10 to 100 | 10 to 100 | 100 to 1000 | 100 to 1000 | 10 to 100 | 100 to 1000 | CCn1c(-c2cccnc2[C@H](C)OC)c2c3cc(ccc31)-c1csc(n1)C[C@H](NC(=O)[C@H](C(C)C)N(C)C(=O)N1CCCCC1)C(=O)N1CCC[C@H](N1)C(=O)OCC(C)(C)C2 [Compound A363] | 10 to 100 |  |  |  |
| 100 to 1000 | 10 to 100 | 10 to 100 | 100 to 1000 | 10 to 100 | 100 to 1000 | 100 to 1000 | 100 to 1000 | 100 to 1000 | CCn1c(-c2cccnc2[C@H](C)OC)c2c3cc(ccc31)-c1cc(O)cc(c1)C[C@H](NC(=O)[C@H](C(C)C)N(C)C(=O)C1CC(C)C1)C(=O)N1CCC[C@H](N1)C(=O)OCC(C)(C)C2 (some centres unmarked) [Compound A384] | 100 to 1000 |  |  |  |
| 10 to 100 | 10 to 100 | 10 to 100 | 10 to 100 | 10 to 100 | 10 to 100 | 10 to 100 | 10 to 100 | 100 to 1000 | CCn1c(-c2cccnc2[C@H](C)OC)c2c3cc(ccc31)-c1cc(O)cc(c1)C[C@H](NC(=O)[C@H](C(C)C)N(C)C(=O)[C@H]1CC[C@@H]1N)C(=O)N1CCC[C@H](N1)C(=O)OCC(C)(C)C2 [Compound A392] | 1000 to 10000 |  |  |  |
| 100 to 1000 | 10 to 100 | 10 to 100 | 10 to 100 | 10 to 100 | 10 to 100 | 10 to 100 | 10 to 100 | 100 to 1000 | CCn1c(-c2cccnc2[C@H](C)OC)c2c3cc(ccc31)-c1cc(O)cc(c1)C[C@H](NC(=O)[C@H](C(C)C)N(C)C(=O)C1CCNC13CCC3)C(=O)N1CCC[C@H](N1)C(=O)OCC(C)(C)C2 (some centres unmarked) [Compound A393] | 1000 to 10000 |  |  |  |
| 10 to 100 | 100 to 1000 | 10 to 100 | 10 to 100 | 10 to 100 | 100 to 1000 | 100 to 1000 | 100 to 1000 | 100 to 1000 | CCn1c(-c2cccnc2[C@H](C)OC)c2c3cc(ccc31)-c1csc(n1)C[C@H](NC(=O)[C@H](C(C)C)N(C)C(=O)N1CCOC[C@H]1C)C(=O)N1CCC[C@H](N1)C(=O)OCC(C)(C)C2 [Compound A402] | 10 to 100 |  |  |  |
| 100 to 1000 | 10 to 100 | 10 to 100 | 10 to 100 | 100 to 1000 | 100 to 1000 | 100 to 1000 | 100 to 1000 | 100 to 1000 | CCn1c(-c2cccnc2[C@H](C)OC)c2c3cc(ccc31)-c1cc(O)cc(c1)C[C@H](NC(=O)[C@H](C(C)C)N(C)C(=O)C13CCC(CO1)C3)C(=O)N1CCC[C@H](N1)C(=O)OCC(C)(C)C2 [Compound A410] | 100 to 1000 |  |  |  |

| Compound | IC50 ([1]; K-Ras G12C, 5-day treatment) [nM] | IC50 [3] [nM] | IC50 [4] [nM] | IC50 [5] [nM] | IC50 [6, 11] [nM] | IC50 [7] [nM] | IC50 [8] [nM] | IC50 [9] [nM] | IC50 [10] [nM] | IC50 ([2]; K-Ras G12V, 5-day treatment) [nM] | IC50 [1] [nM] | IC50 [2] [nM] | IC50 ([6]; NRAS G12C FRET data IC50) [nM] |
| --- | --- | --- | --- | --- | --- | --- | --- | --- | --- | --- | --- | --- | --- |
| CCn1c(-c2cccnc2[C@H](C)OC)c2c3cc(ccc31)-c1cc(O)cc(c1)C[C@H](NC(=O)[C@H](C(C)C)N(C)C(=O)C1CCC(C(F)(F)F)O1)C(=O)N1CCC[C@H](N1)C(=O)OCC(C)(C)C2 (some centres unmarked) [Compound A408] |  | 10 to 100 | 10 to 100 | 100 to 1000 |  | 100 to 1000 | 100 to 1000 | 10 to 100 | 100 to 1000 |  | 100 to 1000 | 1000 to 10000 | 10 to 100 |
